In series [1] the test system is MERS-CoV. The series is classed as cell-based.
Series [2] has as its system MERS-CoV. The series is classed as cell-based. This is another data set of the same source.
Series [3] has as its system primary human lung microvascular endothelial cells (MVE).
Series [4] concerns primary human lung fibroblasts (FB).
The subject of series [5] is caspases 3/7. The series is classed as cell-based, human.
The test system of series [6] is caspases 3/7. The series is classed as cell-based, human. The source holds these as a separate data set.
Series [7] has as its system primary human lung microvascular endothelial cells (MVE). The source holds these as a separate data set.
The subject of series [8] is primary human lung fibroblasts (FB). The source holds these as a separate data set.

The results in this text go back to patent US20230137667A1, “METHODS AND COMPOSITIONS FOR TREATMENT OF CORONAVIRUS INFECTION” (priority 2020, published 2023).

Like-named read-outs stand apart in the source and are kept apart here.

Consider `O=C(COc1ccc(Cl)cc1)NC1CCC(NC(=O)COc2ccc(Cl)cc2)CC1` (stereo not drawn) [trans-ISRIB], for which the “MERS-CoV replication (nanoluciferase expression)” value in series [1] and in series [2] was “did not alter MERS-CoV replication in either infected MVE or FB” each time. For the same compound, the “cytotoxicity (CellTiter-Glo cell viability)” value in series [3] and in series [4] was “not cytotoxic at any dose tested” throughout.
With `C[C@H](CCC(=O)O)C[C@H](C)C[C@H](C)C(=O)/C=C(\O)[C@H](C)C[C@H](C)C/C=C/[C@@H](C)[C@@H](O)[C@@H](C)[C@@H](O)C[C@@H]1CC[C@@](C)([C@H]2CC[C@@](C)([C@@H](C)O)O2)O1` [ionomycin], the “caspase 3/7 activation” value in series [5] and in series [6] was “did not induce caspase 3/7 activation” each time. Further, the cell viability result in series [7] and in series [8] was “diminished cell viability” in each case.
Consider `CN[C@@H]1C[C@H]2O[C@@](C)([C@@H]1OC)n1c3ccccc3c3c4c(c5c6ccccc6n2c5c31)C(=O)NC4` [staurosporine], for which the “caspase 3/7 activation” value in series [5] and in series [6] was “significantly induced caspase 3/7 activation” each time. The cell viability result in series [7] and in series [8] was “diminished cell viability” throughout.
As to `Cc1ccc2cc(-c3c(C)ccc(C(=O)c4c(-c5ccccc5)n(C)n(-c5ccccc5)c4=O)c3N)ccc2n1` [AMG PERK 44], the “caspase 3/7 activation above untreated infected cells” value in series [5] and in series [6] was “No significant dose responsive change in caspase 3/7 activation above untreated infected cells” throughout. In addition, the “cytotoxicity (CellTiter-Glo cell viability)” value in series [3] is “dose dependent increase in cytotoxicity”.
